Source: patent US10330673B2, “Fluorescent chemical sensor for biological amines” (The Curators of the University of Missouri, priority 2013, dated 2019)

Key:
[1] = Fluorescence titration of sensor with glycine; type: binding; conditions: amine guest glycine
[2] = test system: norepinephrine-enriched chromaffin cells; assay: Live-cell confocal imaging with Compound I-2, norepinephrine-enriched cells; type: cell-based, bovine; conditions: 0.1 μM
Method: Chromaffin cells were separated into norepinephrine-enriched and epinephrine-enriched fractions by centrifugation on a Percoll gradient. Both populations were independently incubated with a 0.1 μM solution of Compound I-2 at 37° C. for 30 minutes and then washed to remove excess sensor and plated.
Chromaffin cells were isolated from bovine adrenal glands as previously described. Following centrifugation at 18° C. at 13,000 rpm for 45 minutes in the Percoll gradient, chromaffin cells separate into fractions enriched with either epinephrine-enriched cells (denser band) and norepinephrine-enriched cells (lighter band). Moro, M. A.; Lépez, M. G.; Gandía, L.; Michelena, P.; Garcia, G. Separation and culture of living adrenaline- and noradrenaline-containing cells from bovine adrenal medullae. Anal. Biochem. 1990, 185, 243-248. Over 90% of the catecholamine content found in the cells in the denser fraction are epinephrine, whereas approximately 67% of the catecholamine content in the lighter fraction are norepinephrine. Liu, X.; Barizuddin, S.; Shin, W.; Mathai, C. J.; Gangopadhyay, S.; Gillis, K. D. Microwell device for targeting single cells to electrochemical microelectrodes for high-throughput amperometric detection of quantal exocytosis. Anal. Chem. 2011, 83, 2445-2451. The two cell fractions were collected from the Percoll gradient with careful pipetting and separately cultured. […]

[3] = test system: NE-enriched chromaffin cells; assay: Fixed-cell staining with I-2 and anti-PNMT antibody, NE-enriched cells; type: cell-based, bovine; conditions: 1 μM, fixed in 4% paraformaldehyde, visualized at 525 nm
Excerpt: (§1) To further validate the selectivity of the inventive sensor, the inventive detection method is validated with an established procedure in which phenylethanolamine N-methyltransferase (PNMT) is stained with an antibody and visualized with a Cy3-conjugated secondary antibody. It has been shown that epinephrine-enriched cell populations gave the highest level of PNMT staining, while norepinephrine-enriched populations gave lower staining (ca. 20% of that with epinephrine-enriched cells). For this experiment, three populations of chromaffin cells (norepinephrine-enriched, epin ephrine-enriched, and mixed) were stained with Compound I-2 and fixed in 4% paraformaldehyde. The fixed cells were stained with the anti-PNMT and secondary antibodies.
(§2) Chromaffin cells were isolated from bovine adrenal glands as previously described. […]
(§3) NE-enriched cells, EP-enriched cells and mixed cells stained with I-2 (1 μM) and plated on 0.0025% Poly (1-lysine) coated cover slips, after three washed with pre-warmed phosphate-buffered saline (pH=7.4, PBS), were fixed in 4% paraformaldehyde (Sigma, St. Louis, Mo., USA) in PBS for 60 min at room temperature (RT), followed by 6 min in methanol chilled to −20° C. […] After three washed in PBS, bound antibody was detected using Cy™3-conjugated AffiniPure Donkey Anti-Rabbit (1:150 dilution, Jackson ImmunoResearch Laboratories, Inc, Nest Grove, Pa., 19390). […]

[4] = Fluorescence quantum yield of sensor bound to norepinephrine; type: physicochemical
[5] = test system: EP-enriched chromaffin cells; assay: Fixed-cell staining with I-2 and anti-PNMT antibody, EP-enriched cells; type: cell-based, bovine; conditions: 585 nm = anti-PNMT/Cy3, 525 nm = I-2 (1 μM), ImageJ
Excerpt: as §1, §2, §3

Quantum Yield (Φ) [4]: 0.0033
SMILES: CCN(CC)c1ccc2c(-c3ccc(OC)cc3)c(C=O)c(=O)oc2c1 [Compound I-2, 7-diethylamino-3-formyl-4-(4′-methoxyphenyl)coumarin]
Ka ([1]; fluorescence spectroscopy, λex = 488 nm, λem = 521 nm): 8 M⁻¹
Isat/Io (λex = 488 nm) ([1]; intensity at saturation from fit to binding isotherm): 11.1
cell fluorescence, confocal microscopy ([2]; 37° C., 30 minutes, 488 nm excitation (bound sensor)): strong, punctate fluorescence
cell fluorescence, confocal microscopy ([2]; excited at 440 nm (unbound sensor)): No significant fluorescence
staining of fixed cells by sensor [3]: stain brightly
average fluorescence intensity at 585 nm vs. 525, epinephrine-enriched relative to norepinephrine-enriched cells [5]: 6 times
